Assay results taken from patent publication US11180462B2, “Microbiocidal oxadiazole derivatives” (SYNGENTA PARTICIPATIONS AG, priority 2015, dated 2021).
Like-named read-outs stand apart in the source and are kept apart here.

Assays:
[1] = tested on: Puccinia recondita f. Sp. Tritici; test: Fungicidal activity against Puccinia recondita f. sp. tritici / wheat / leaf disc curative (brown rust); format: in vivo; conditions: foliar, 24 h, read-out: disease control
Summary of the method: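 Curative leaf-segment test: compound diluted in water applied 1 day after spore inoculation of cv. Kanzler wheat segments on agar. Conditions 19° C, 75% RH, 12 h/12 h light cycle. Read-out: % disease control relative to untreated check, 6 to 8 days after application.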

[2] = tested on: Puccinia recondita f. Sp. Tritici; test: Fungicidal activity against Puccinia recondita f. sp. tritici / wheat / leaf disc preventative (brown rust); format: in vivo; conditions: foliar, read-out: disease control
Summary of the method: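 Percent disease control relative to untreated check segments is scored once disease develops, 7 to 9 days after application. Wheat cv. Kanzler segments receive compound spray (200 ppm in formulation) one day before spore inoculation, then sit at 19° C. and 75% rh under 12 h light/12 h dark.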

[3] = tested on: Glomerella lagenarium (Colletotrichum lagenarium); test: Fungicidal activity against Glomerella lagenarium (Colletotrichum lagenarium) liquid culture / cucumber / preventative (anthracnose); format: cell-based; conditions: Colletotrichum orbiculare, read-out: disease control
Summary of the method: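 Percent activity against the untreated check was derived from photometric growth measurements made 2 to 7 days after conidia in potato dextrose broth were combined with compound at 20 ppm. Cultures were kept dark at 24 °C and 96% humidity.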

[4] = 200 ppm in the applied formulation, wheat leaf segments, curative (applied 1 day after inoculation), compared to untreated control leaf disks
[5] = 200 ppm in the applied formulation, wheat leaf segments, preventative, compared to untreated control leaf disks
[6] = 20 ppm in the applied formulation, liquid culture (PDB), growth inhibition measured photometrically after 3 to 4 days, compared to untreated control

N#CC1(C(=O)N(Cc2ccc(-c3noc(C(F)(F)F)n3)cc2)CC2CCCO2)CC1 (stereo not drawn) [Compound 1.443, 1-cyano-N-(tetrahydrofuran-2-ylmethyl)-N-[[4-[5-(trifluoromethyl)-1,2,4-oxadiazol-3-yl]phenyl]methyl]-cyclopropane-carboxamide]
≥ 80%: pest or weed control at 200 ppm [1, 4] | pest or weed control at 200 ppm [2, 5] | inhibition of growth at 20 ppm [3, 6]

O=C(C1CCCO1)N(Cc1ccc(-c2noc(C(F)(F)F)n2)cc1)CC1CCCO1 (stereo not drawn) [Compound 1.442, N-(tetrahydrofuran-2-ylmethyl)-N-[[4-[5-(trifluoromethyl)-1,2,4-oxadiazol-3-yl]phenyl]methyl]-tetrahydrofuran-2-carboxamide]
≥ 80%: pest or weed control at 200 ppm [1, 4] | pest or weed control at 200 ppm [2, 5] | inhibition of growth at 20 ppm [3, 6]

COCCCC(=O)N(OC)C(C)c1ccc(-c2noc(C(F)(F)F)n2)cc1 (stereo not drawn) [Compound 1.280, N,4-dimethoxy-N-[1-[4-[5-(trifluoro-methyl)-1,2,4-oxadiazol-3-yl]phenyl]ethyl]-butanamide]
≥ 80%: pest or weed control at 200 ppm [1, 4] | pest or weed control at 200 ppm [2, 5] | inhibition of growth at 20 ppm [3, 6]

CC#CC(=O)N(CCOC)Cc1ccc(-c2noc(C(F)(F)F)n2)cc1 [Compound 1.323, N-(2-methoxyethyl)-N-[[4-[5-(trifluoromethyl)-1,2,4-oxadiazol-3-yl]phenyl]methyl]but-2-yaamide]
≥ 80%: pest or weed control at 200 ppm [1, 4] | pest or weed control at 200 ppm [2, 5] | inhibition of growth at 20 ppm [3, 6]

O=C(Cc1ccc(Cl)cc1)N(Cc1ccc(-c2noc(C(F)(F)F)n2)cc1)C1CC1 [Compound 1.127, 2-(4-chlorophenyl)-N-cyclopropyl-N-[[4-[5-(trifluoromethyl)-1,2,4-oxadiazol-3-yl]phenyl]methyl]-acetamide]
≥ 80%: pest or weed control at 200 ppm [1, 4] | pest or weed control at 200 ppm [2, 5] | inhibition of growth at 20 ppm [3, 6]

C#CCN(Cc1ccc(-c2noc(C(F)(F)F)n2)cc1)C(=O)C1(C(F)(F)F)CCC1 [Compound 1.161, N-prop-2-ynyl-1-(trifluoromethyl)-N-[[4-[5-(trifluoromethyl)-1,2,4-oxadiazol-3-yl]phenyl]methyl]-cyclobutane-carboxamide]
≥ 80%: pest or weed control at 200 ppm [1, 4] | pest or weed control at 200 ppm [2, 5] | inhibition of growth at 20 ppm [3, 6]

CN(CC#N)C(=O)N(C)Cc1ccc(-c2noc(C(F)(F)F)n2)cc1 [Compound 3.70, 1-(cyanomethyl)-1,3-dimethyl-3-[[4-[5-(trifluoromethyl)-1,2,4-oxadiazol-3-yl]phenyl]methyl]urea]
≥ 80%: pest or weed control at 200 ppm [1, 4] | pest or weed control at 200 ppm [2, 5] | inhibition of growth at 20 ppm [3, 6]

CON(C(=O)C1OCCO1)C(C)c1ccc(-c2noc(C(F)(F)F)n2)cc1 (stereo not drawn) [Compound 1.276, N-methoxy-N-[1-[4-[5-(trifluoromethyl)-1,2,4-oxadiazol-3-yl]phenyl]ethyl]-1,3-dioxolane-2-carboxamide]
≥ 80%: pest or weed control at 200 ppm [1, 4] | pest or weed control at 200 ppm [2, 5] | inhibition of growth at 20 ppm [3, 6]

CC(C)C(=O)N(Cc1ccc(-c2noc(C(F)(F)F)n2)cc1)Cc1ccco1 [Compound 1.463, N-(2-furylmethyl)-2-methyl-N-[[4-[5-(trifluoromethyl)-1,2,4-oxadiazol-3-yl]phenyl]methyl]-propanamide]
≥ 80%: pest or weed control at 200 ppm [1, 4] | pest or weed control at 200 ppm [2, 5] | inhibition of growth at 20 ppm [3, 6]

CCCN(C)C(=O)N(CC)Cc1ccc(-c2noc(C(F)(F)F)n2)cc1 [Compound 3.94, 1-ethyl-3-methyl-3-propyl-1-[[4-[5-(trifluoromethyl)-1,2,4-oxadiazol-3-yl]phenyl]methyl]urea]
≥ 80%: pest or weed control at 200 ppm [1, 4] | pest or weed control at 200 ppm [2, 5] | inhibition of growth at 20 ppm [3, 6]

CCOC(=O)CNC(=O)N(Cc1ccc(-c2noc(C(F)(F)F)n2)cc1)OC [Compound 3.49, ethyl 2-[[methoxy-[[4-[5-(trifluoromethyl)-1,2,4-oxadiazol-3-yl]phenyl]methyl]-carbamoyl]-amino]acetate]
≥ 80%: pest or weed control at 200 ppm [1, 4] | pest or weed control at 200 ppm [2, 5] | inhibition of growth at 20 ppm [3, 6]

CON(C(=O)C1CCCCO1)C(C)c1ccc(-c2noc(C(F)(F)F)n2)cc1 (stereo not drawn) [Compound 1.249, N-methoxy-N-[1-[4-[5-(trifluoromethyl)-1,2,4-oxadiazol-3-yl]phenyl]ethyl]-tetrahydropyran-2-carboxamide]
≥ 80%: pest or weed control at 200 ppm [1, 4] | pest or weed control at 200 ppm [2, 5] | inhibition of growth at 20 ppm [3, 6]

CCC(C)N(Cc1ccc(-c2noc(C(F)(F)F)n2)cc1)C(=O)C=CC(C)=O (stereo not drawn) [Compound 1.396, 4-oxo-N-sec-butyl-N-[[4-[5-(trifluoromethyl)-1,2,4-oxadiazol-3-yl]phenyl]methyl]-pent-2-enamide]
≥ 80%: pest or weed control at 200 ppm [1, 4] | pest or weed control at 200 ppm [2, 5] | inhibition of growth at 20 ppm [3, 6]

C#CC(=O)N(Cc1ccc(-c2noc(C(F)(F)F)n2)cc1)C(C)CC (stereo not drawn) [Compound 1.391, N-sec-butyl-N-[[4-[5-(trifluoromethyl)-1,2,4-oxadiazol-3-yl]phenyl]methyl]-prop-2-ynamide]
≥ 80%: pest or weed control at 200 ppm [1, 4] | pest or weed control at 200 ppm [2, 5] | inhibition of growth at 20 ppm [3, 6]

COCCN(Cc1ccc(-c2noc(C(F)(F)F)n2)cc1)C(=O)CC(C)C [Compound 1.336, N-(2-methoxyethyl)-3-methyl-N-[[4-[5-(trifluoromethyl)-1,2,4-oxadiazol-3-yl]phenyl]methyl]-butanamide]
≥ 80%: pest or weed control at 200 ppm [1, 4] | pest or weed control at 200 ppm [2, 5] | inhibition of growth at 20 ppm [3, 6]

COCCN(C)C(=O)N(Cc1ccc(-c2noc(C(F)(F)F)n2)cc1)OC [Compound 3.63, 1-methoxy-3-(2-methoxyethyl)-3-methyl-1-[[4-[5-(trifluoromethyl)-1,2,4-oxadiazol-3-yl]phenyl]methyl]urea]
≥ 80%: pest or weed control at 200 ppm [1, 4] | pest or weed control at 200 ppm [2, 5] | inhibition of growth at 20 ppm [3, 6]

COC(=O)N(Cc1ccc(-c2noc(C(F)(F)F)n2)cc1)CC(F)(F)F [Compound 2.22, methyl N-(2,2,2-trifluoroethyl)-N-[[4-[5-(trifluoromethyl)-1,2,4-oxadiazol-3-yl]phenyl]methyl]-carbamate]
≥ 80%: pest or weed control at 200 ppm [1, 4] | pest or weed control at 200 ppm [2, 5] | inhibition of growth at 20 ppm [3, 6]

CC=C(C)C(=O)N(CCOC)Cc1ccc(-c2noc(C(F)(F)F)n2)cc1 [Compound 1.330, N-(2-methoxyethyl)-2-methyl-N-[[4-[5-(trifluoromethyl)-1,2,4-oxadiazol-3-yl]phenyl]methyl]-but-2-enamide]
≥ 80%: pest or weed control at 200 ppm [1, 4] | pest or weed control at 200 ppm [2, 5] | inhibition of growth at 20 ppm [3, 6]

C=C(C)C(=O)N(Cc1ccc(-c2noc(C(F)(F)F)n2)cc1)CC1CCCO1 (stereo not drawn) [Compound 1.433, 2-methyl-N-(tetrahydrofuran-2-ylmethyl)-N-[[4-[5-(trifluoromethyl)-1,2,4-oxadiazol-3-yl]phenyl]methyl]-prop-2-enamide]
≥ 80%: pest or weed control at 200 ppm [1, 4] | pest or weed control at 200 ppm [2, 5] | inhibition of growth at 20 ppm [3, 6]

C=CCN(Cc1ccc(-c2noc(C(F)(F)F)n2)cc1)C(=O)CC#N [Compound 1.490, N-allyl-2-cyano-N-[[4-[5-(trifluoromethyl)-1,2,4-oxadiazol-3-yl]phenyl]methyl]-acetamide]
≥ 80%: pest or weed control at 200 ppm [1, 4] | pest or weed control at 200 ppm [2, 5] | inhibition of growth at 20 ppm [3, 6]

CON(Cc1ccc(-c2noc(C(F)(F)F)n2)cc1)C(=O)NCC(C)(C)C [Compound 3.10, 3-(2,2-dimethylpropyl)-1-methoxy-1-[[4-[5-(trifluoromethyl)-1,2,4-oxadiazol-3-yl]phenyl]methyl]urea]
≥ 80%: pest or weed control at 200 ppm [1, 4] | pest or weed control at 200 ppm [2, 5] | inhibition of growth at 20 ppm [3, 6]

CC(C)(C)C(=O)N(Cc1ccc(-c2noc(C(F)(F)F)n2)cc1)CC1CC1 [Compound 1.225, N-(cyclopropylmethyl)-2,2-dimethyl-N-[[4-[5-(trifluoromethyl)-1,2,4-oxadiazol-3-yl]phenyl]methyl]-propanamide]
≥ 80%: pest or weed control at 200 ppm [1, 4] | pest or weed control at 200 ppm [2, 5] | inhibition of growth at 20 ppm [3, 6]

CON(Cc1ccc(-c2noc(C(F)(F)F)n2)cc1)C(=O)Oc1ccccc1 [Compound 2.6, phenyl N-methoxy-N-[[4-[5-(trifluoromethyl)-1,2,4-oxadiazol-3-yl]phenyl]methyl]-carbamate]
≥ 80%: pest or weed control at 200 ppm [1] | pest or weed control at 200 ppm [2] | inhibition of growth at 20 ppm [3]

CON(Cc1ccc(-c2noc(C(F)(F)F)n2)cc1)C(=O)N(C)C1CCC1 [Compound 3.65, 1-cyclobutyl-3-methoxy-1-methyl-3-[[4-[5-(trifluoromethyl)-1,2,4-oxadiazol-3-yl]phenyl]methyl]urea]
≥ 80%: pest or weed control at 200 ppm [1, 4] | pest or weed control at 200 ppm [2, 5] | inhibition of growth at 20 ppm [3, 6]

CC(C)N(C)C(=O)N(C)Cc1ccc(-c2noc(C(F)(F)F)n2)cc1 [Compound 3.79, 1-isopropyl-1,3-dimethyl-3-[[4-[5-(trifluoromethyl)-1,2,4-oxadiazol-3-yl]phenyl]methyl]urea]
≥ 80%: pest or weed control at 200 ppm [1, 4] | pest or weed control at 200 ppm [2, 5] | inhibition of growth at 20 ppm [3, 6]
